Measured values reported in a melting point compilation (Tetko et al.; mined from patent text by program, amines drawn as free bases though some values may be those of a salt).

melting point [°C] | SMILES
192 to 194 | OC(c1ccc(Br)cc1)(c1ccc(Br)cc1)c1ncc[nH]1
116 | CCC(C)Nc1c(-c2ccc(OC)cc2Cl)c(Cl)nc2ncnn12 (configuration not stated)
288 to 290 | CC(=NNc1ccc(C2=NNC(=O)CC2)cc1)c1ccc(C#N)cc1
205 to 207 | CCN1CCN(c2cccc(Nc3nc4c(-c5ccc(P(C)(C)=O)cc5)cccn4n3)c2)C(=O)C1
116 to 120 | C[C@@H]1Cc2ccsc2[C@H](C)N1CCNC(=O)c1ccccn1 (relative stereo)
159 to 160 | CCNC(=O)Oc1ccc(-c2nn(C3CCCC3)c3c(F)cccc23)cc1
224 | CN(c1cccc2cc(-c3ncc(CN4CCC5(CC4)CNC(=O)O5)s3)[nH]c12)S(=O)(=O)c1cccs1
108 | CCOC(=O)C1=C(C)NC(C)=C(C(=O)OCCOC)C1c1cccc([N+](=O)[O-])c1 (configuration not stated)
133 to 134 | O=C(Nc1nc(C(F)(F)C(F)(F)F)c(CF)s1)c1cc(C(F)(F)F)cc(C(F)(F)F)c1
246 to 248 | O=C(O)C1=Cc2cc3c(cc2OC1C(F)(F)F)OCO3 (configuration not stated)
212 to 214 | CC(=O)NC[C@H]1CN(c2ccc(N3CCC(n4nnc(-c5ccccc5)n4)CC3)c(F)c2)C(=O)O1
225 to 227 | CCc1nn(Cc2ccccn2)c(C(N)=O)c1NC(=O)c1cc(S(C)(=O)=O)ccc1OCC(C)C
134 | CC(C)(C)OC(=O)N1C(=O)C(Br)=C(c2cn(C(=O)OC(C)(C)C)c3ccc(OCc4ccccc4)cc23)C1=O
150 to 151 | O=C(NCCO)c1cccc(-c2cccc3nn(Cc4cccc(C(F)(F)F)c4)cc23)n1
121 to 123 | O=C(Cc1ccccc1Nc1c(Cl)cccc1Cl)OCc1ccncc1
158 to 162 | CC1(C)Cc2cc(N)c3c(c2C(c2ccccc2)=N1)CC(C)(C)O3
202 to 203 | COc1ccc(N2C(=O)[C@@H](N3C(=O)c4ccccc4C3=O)[C@H]2/C=C/c2ccccc2)cc1 (relative stereo)
205 to 206 | Cc1nc2sc3c(NCCCN4CCCC4=O)ncnc3c2c2c1CCC(C)(C)C2

melting point [°C] | SMILES
63 to 66 | CCCCOC(=O)C1Oc2ccccc2Cc2ccccc2O1
246 to 247 | C[C@@H](n1cnc2cc(-c3ccc(C=NNO)cc3)sc2c1=O)[C@](O)(Cn1cncn1)c1ccc(F)cc1F
152 to 154 | CC(C)(C)OC(=O)NCC(=O)Nc1ccc(O)cc1
95 to 96 | Cc1cc(O)c2c(c1)CCCC2
235 to 237 | Cc1ncc(-c2cccc(Nc3ncnc4c3CCOc3ccccc3-4)c2)n1C
118 to 120 | COc1cccc(OC(c2ccccc2)C(O)C(=O)NC(C)C)c1 (configuration not stated)
140 to 141 | O=C(O)c1c(F)cc(F)c(F)c1NCc1ccccc1
106 to 109 | O=C(Nc1ccc2c(c1)CCC2)C(=O)N1CCC(Cc2ccccc2)CC1
66 to 68 | CCOc1c(NCCP(=O)(OCC)OCC)c(=O)c1=O
105 to 125 | COc1ccccc1NC(=O)Nc1nc(Oc2ccc3ccccc3c2)nc(N(CCC(=O)O)Cc2cccc(C)c2)n1
> 300 | COC(=O)c1ccc(CCc2cnc3nc(N)nc(O)c3c2)cc1
225 to 226 | Clc1cnn2c(-c3cccnc3)ccnc12
87 to 90 | CN(C)CCc1c(CC(C)(C)[N+](=O)[O-])c2ccccc2n1C
261 to 263 | COCCN1CCc2sc(Nc3ncc(F)c(C)n3)nc2-c2c[nH]nc21
156 to 157 | Cc1oc(-c2ccc(C(F)(F)F)cc2)nc1COc1cc(F)cc(CN(O)C(N)=O)c1
91 to 92 | CCCc1cc(Cn2c(=O)ccc3c(CC)nc(CC)cc32)ccc1Oc1ccccc1CC(=O)OC
60 | CSC(SC)=C(C(=O)C(C)(C)C)n1cncn1

SMILES | melting point [°C]
CCC12CCC3C4CCC(=O)C=C4CCC3C1CCC2(C)O (configuration not stated) | 128 to 129
O=C1NC(=O)C(Cc2ccccc2)C(=O)N1 | 207 to 209
